Experiments:
Experiment in all cases: Test C pre-/postemergence plant response
Type in all cases: in vivo
[1] = tested on: annual bluegrass (Poa annua)
In short: (§1)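 Plant response was judged by eye against untreated controls following 15 to 25 days in a controlled growth environment, using 0 for no effect and 100 for complete control. Treatments were made both preemergence and postemergence, the latter on plants of 1- to 4-leaf stage.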

[2] = tested on: canarygrass (Phalaris minor)
In short: as §1

canola (Brassica rapa) = tested on: canola (Brassica rapa)
In short: as §1

wild oat (Avena fatua) = tested on: wild oat (Avena fatua)
In short: as §1

[3] = tested on: windgrass (Apera spica-venti)
In short: as §1

[4] = Postemergence, 8 g ai/ha, scale 0 to 100, 0 no effect, 100 complete control
[5] = Postemergence, 16 g ai/ha, scale 0 to 100, 0 no effect, 100 complete control
[6] = Postemergence, 31 g ai/ha, scale 0 to 100, 0 no effect, 100 complete control
[7] = Postemergence, 62 g ai/ha, scale 0 to 100, 0 no effect, 100 complete control
[8] = Preemergence, 8 g ai/ha, scale 0 to 100 (0 no effect, 100 complete control)
[9] = Preemergence, 16 g ai/ha, scale 0 to 100 (0 no effect, 100 complete control)
[10] = Preemergence, 31 g ai/ha, scale 0 to 100 (0 no effect, 100 complete control)
[11] = Preemergence, 62 g ai/ha, scale 0 to 100, 0 no effect, 100 complete control

Row | Structure (SMILES) | Plant response rating, Bluegrass [1, 4] | Plant response rating, Bluegrass [1, 5] | Plant response rating, Bluegrass [1, 6] | Plant response rating, Bluegrass [1, 7] | Plant response rating, Bluegrass [1, 8] | Plant response rating, Bluegrass [1, 9] | Plant response rating, Bluegrass [1, 10] | Plant response rating, Bluegrass [1, 11] | Plant response rating, Canarygrass [2, 8] | Plant response rating, Canarygrass [2, 9] | Plant response rating, Canarygrass [2, 10] | Plant response rating, Canarygrass [2, 11] | Plant response rating, Oat, Wild (wild oat (Avena fatua); [8]) | Plant response rating, Oat, Wild (wild oat (Avena fatua); [10]) | Plant response rating, Oat, Wild (wild oat (Avena fatua); [11]) | Plant response rating, Windgrass [3, 9] | Plant response rating, Windgrass [3, 10] | Plant response rating, Windgrass [3, 11] | Plant response rating, Oat, Wild (wild oat (Avena fatua); [9]) | Plant response rating, Windgrass [3, 8] | other results
1 | Cc1nn(C)c(=O)c(-n2nc(-c3ccc(Cl)cc3)cc2C)c1O [Compound 15] | 0 | 25 | 40 | 50 | 40 | 60 | 75 | 90 | 20 | 70 | 80 | 95 | 0 | 50 | 65 | 25 | 75 | 95 | – | – | Plant response rating, Canola (canola (Brassica rapa); [4]): 0; Plant response rating, Canola (canola (Brassica rapa); [5]): 0; Plant response rating, Canola (canola (Brassica rapa); [6]): 0; Plant response rating, Canola (canola (Brassica rapa); [7]): 0; Plant response rating, Canola (canola (Brassica rapa); [8]): 0; Plant response rating, Canola (canola (Brassica rapa); [9]): 0; Plant response rating, Canola (canola (Brassica rapa); [10]): 0; Plant response rating, Canola (canola (Brassica rapa); [11]): 0; Plant response rating, Oat, Wild (wild oat (Avena fatua); [4]): 0; Plant response rating, Oat, Wild (wild oat (Avena fatua); [5]): 25; Plant response rating, Oat, Wild (wild oat (Avena fatua); [6]): 90; Plant response rating, Oat, Wild (wild oat (Avena fatua); [7]): 90; Plant response rating, Windgrass [3, 4]: 0; Plant response rating, Windgrass [3, 5]: 0; Plant response rating, Windgrass [3, 6]: 0; Plant response rating, Windgrass [3, 7]: 40
2 | Cc1cc(-c2ccc(Cl)cc2)nn1-c1c(OC(=O)CC(C)C)cnn(C)c1=O [Compound 37] | 0 | 20 | 20 | 20 | 0 | 35 | 60 | 70 | 15 | 60 | 80 | 95 | 20 | 70 | 80 | 20 | 60 | 80 | 20 | 0 | Plant response rating, Canarygrass [2, 4]: 0; Plant response rating, Canarygrass [2, 5]: 35; Plant response rating, Canarygrass [2, 6]: 75; Plant response rating, Canarygrass [2, 7]: 100; Plant response rating, Canola (canola (Brassica rapa); [4]): 0; Plant response rating, Canola (canola (Brassica rapa); [5]): 0; Plant response rating, Canola (canola (Brassica rapa); [6]): 0; Plant response rating, Canola (canola (Brassica rapa); [7]): 0; Plant response rating, Canola (canola (Brassica rapa); [8]): 0; Plant response rating, Canola (canola (Brassica rapa); [10]): 0; Plant response rating, Canola (canola (Brassica rapa); [11]): 0; Plant response rating, Oat, Wild (wild oat (Avena fatua); [4]): 25; Plant response rating, Oat, Wild (wild oat (Avena fatua); [5]): 80; Plant response rating, Oat, Wild (wild oat (Avena fatua); [6]): 90; Plant response rating, Oat, Wild (wild oat (Avena fatua); [7]): 95; Plant response rating, Windgrass [3, 4]: 0; Plant response rating, Windgrass [3, 5]: 0; Plant response rating, Windgrass [3, 6]: 15; Plant response rating, Windgrass [3, 7]: 30
3 | Cc1cc(-c2ccc(C(F)(F)F)c(F)c2)nn1-c1c(O)c(C(F)(F)F)nn(C)c1=O [Compound 44] | 0 | 0 | 0 | 0 | 0 | 0 | 0 | 0 | 30 | 65 | 75 | 85 | 50 | 80 | 90 | 100 | 100 | 100 | 75 | 100 | Plant response rating, Canarygrass [2, 4]: 75; Plant response rating, Canarygrass [2, 5]: 80; Plant response rating, Canarygrass [2, 6]: 90; Plant response rating, Canarygrass [2, 7]: 100; Plant response rating, Canola (canola (Brassica rapa); [4]): 0; Plant response rating, Canola (canola (Brassica rapa); [5]): 0; Plant response rating, Canola (canola (Brassica rapa); [6]): 0; Plant response rating, Canola (canola (Brassica rapa); [7]): 0; Plant response rating, Canola (canola (Brassica rapa); [8]): 0; Plant response rating, Canola (canola (Brassica rapa); [9]): 0; Plant response rating, Canola (canola (Brassica rapa); [10]): 0; Plant response rating, Canola (canola (Brassica rapa); [11]): 0; Plant response rating, Oat, Wild (wild oat (Avena fatua); [4]): 100; Plant response rating, Oat, Wild (wild oat (Avena fatua); [5]): 100; Plant response rating, Oat, Wild (wild oat (Avena fatua); [6]): 100; Plant response rating, Oat, Wild (wild oat (Avena fatua); [7]): 100; Plant response rating, Windgrass [3, 4]: 50; Plant response rating, Windgrass [3, 5]: 90; Plant response rating, Windgrass [3, 6]: 95; Plant response rating, Windgrass [3, 7]: 100
4 | Cc1cc(-c2ccc(Cl)cc2)nn1-c1c(OS(=O)(=O)c2cccc3ccccc23)cnn(C)c1=O [Compound 47] | – | – | – | – | 0 | 20 | 50 | 50 | 0 | 0 | 50 | 90 | 0 | 75 | 80 | 0 | 30 | 65 | 0 | 0 | –
5 | Cc1cc(-c2ccc(Cl)cc2)nn1-c1c(OC(=O)c2cccs2)cnn(C)c1=O [Compound 52] | – | – | – | – | 0 | 0 | 10 | 10 | 0 | 65 | 90 | 95 | 0 | 60 | 60 | 0 | 70 | 70 | 40 | 0 | –
6 | Cc1cc(-c2ccc(Cl)cc2)nn1-c1c(OS(=O)(=O)c2ccc(Cl)s2)cnn(C)c1=O [Compound 55] | – | – | – | – | 0 | 0 | 0 | 15 | 0 | 0 | 20 | 90 | 0 | 0 | 65 | 0 | 0 | 60 | 0 | 0 | –

— patent US20100267561A1, “HERBICIDAL PYRIDAZINONE DERIVATIVES” (priority 2007, published 2010)
